Measurements as given in patent US11655994B2, “Antimicrobial composition including an acyl lactylate and a glycol and methods of inhibiting microbial growth utilizing the same” (Kimberly-Clark Worldwide, Inc., priority 2017, dated 2023).

Assay: Brookfield viscosity of acyl lactylates alone and 1:1 with glycols
Assay type: physicochemical
Conditions: Brookfield 95, 5 RPM, 25° C.; acyl lactylate alone
Text: An advantage of compositions including an acyl lactylate and a glycol is the reduction of viscosity that is present in acyl lactylates, which is rather high and increases difficulty in processing. […] Of course, it is expected that a lowering of viscosity of the acyl lactylates would be realized in ratios of acyl lactylates:glycols other than 1:1 as well.

Compound	Viscosity
CCCCCCCCCCCC(=O)OC(C)C(=O)OC(C)C(=O)[O-].[Na+] (stereo not drawn) [Sodium Lauroyl Lactylate]	1,520,000 cP
Sodium Caproyl/Lauroyl Lactylate	1,192,000 cP
Sodium Isostearoyl Lactylate	1,080,000 cP
